In one test the test system is Peronospora tabacina. The test is described as follows: Greenhouse test on tobacco mildew. Particulars: for inhibition at 15 µg/mL: dose of 15 mg/liter; for inhibition at 500 µg/mL: dose of 500 mg/liter. In kind it is in vivo, Peronospora tabacina (on Nicotiana tabacum, Samson variety). The source says: Greenhouse test on tobacco mildew
The procedure of the previous example is followed, except that the plants are tobacco plants (Nicotiana tabacum) of the Samson variety, and that these plants are contaminated with spores of Peronospora tabacina, which is responsible for tobacco mildew.
Under these conditions, it was observed that, for the compounds or mixtures of compounds described in the above examples, the minimum inhibitory concentrations causing from 95 to 100% inhibition of the fungus in question (MIC 95-100) are respectively as follows:
In this experiment, the observed percentage inhibition of the development of the fungus in question was between 20% and 90%: […]

A further test relates to Phytophthora infestans. Put plainly: whole plant or invertebrate. In kind it is in vivo. The conditions noted are these: in Solanum lycopersicum, read-out: percentage inhibition of the development of the fungus.
For test [1], the system named is Tetranychus urticae koch, parthenogenetic females. Put plainly: Acaricidal activity by contact-ingestion. In kind it is in vivo. Particulars: bean leaves treated by dipping, three days after contamination, average of two experiments. How it is done: Acaricidal activity by contact-ingestion
(foliage treated by dipping: Tetranychus urticae koch, parthenogenetic females).
An aqueous emulsion of the active ingredient to be tested is prepared by grinding the latter, in a Potter mill, in water containing 0.02% of Tween 80. The aqueous emulsion is then brought to the desired concentration by dilution with water containing 0.01% of Scurol O.
Bean plants (Phaseolus vulgaris--Contender variety) at the "cotyledonary leaf" stage are used. Each plant is treated by dipping the leaves for 10 seconds in the aqueous emulsion containing the active ingredient to be tested, at the desired concentration, two plants being used for each concentration. The experiment was carried out for active ingredient concentrations ranging from 2,000 mg/liter to 10 mg/liter. The bean plants are kept alive by immersing the roots and the base of the stem in distilled water.
After the surface of the foliage has dried, contamination is carried out by depositing, on each bean leaf, a highly contaminated leaf fragment produced by mite breeding. This leaf fragment is removed after 24 hours.
Three days after contamination, the number of dead mites and the number of living mites are counted under a binocular magnifying glass.
The percentage mortality is thus determined for each concentration (average of two experiments). […]

Setting [2] is: read-out: percentage inhibition of the development of the fungus.

As a reminder, the inhibition is the change of the read-out against control, counted positive when it falls. On to `CS(=O)(=O)n1c(C#N)nc2ccccc21` [Compound 16], for which, in the test with Peronospora tabacina (setting [2]), the inhibition at 15 µg/mL is 20 to 90%.
For the compound `COc1cc2c(nc(C#N)n2S(=O)(=O)N(C)C)c([N+](=O)[O-])c1OC` [Compound 28], the inhibition at 500 µg/mL with Phytophthora infestans and in the test on Peronospora tabacina (setting [2]) was 20 to 90% in each case.
For `CN(C)S(=O)(=O)n1c(C#N)nc2c(C(F)(F)F)cc(C(F)(F)F)cc21` [Compound 70], the “LC90, concentration which causes 90% mortality of the mites” value in test [1] turned out to be 10 mg/L.
Take `CN(C)S(=O)(=O)n1c(C#N)nc2cc(C(C)(C)C)ccc21` [Compound 11]: the inhibition at 500 µg/mL in the test on Phytophthora infestans fell in the range of 20 to 90%.
For the compound `CN(C)S(=O)(=O)n1c(C#N)nc2c(Cl)c(Cl)ccc21` [Compound 45], the inhibition at 4 µg/mL in the test on Phytophthora infestans was in the range of 20 to 90%.
Turning to `CN(C)S(=O)(=O)n1c(C#N)nc2c(Br)cc(Br)cc21` [Compound 39], the inhibition at 8 µg/mL in the test on Phytophthora infestans lay within 20 to 90%.
As for `Cc1c(Cl)ccc2c1nc(C#N)n2S(=O)(=O)N(C)C` [Compound 50], the inhibition at 500 µg/mL in the test with Phytophthora infestans was 20 to 90%.
In the case of `Cc1c([N+](=O)[O-])ccc2c1nc(C#N)n2S(=O)(=O)N(C)C` [Compound 64], in the test with Peronospora tabacina (setting [2]), the inhibition at 15 µg/mL is 20 to 90%.
As to `N#Cc1nc2ccccc2[nH]1` [2-Cyanobenzimidazole, 2-cyanobenzimidazole, reference compound], the inhibition at 1000 µg/mL with Peronospora tabacina (dose of 1,000 mg/liter, read-out: % inhibition (antifungal activity)) was 0%.
Turning to `N#Cc1nc2c(Cl)cc(Cl)cc2n1S(=O)(=O)N1CCCC1` [Compound 57], the inhibition at 15 µg/mL in the test with Peronospora tabacina (setting [2]) lay in the range of 20 to 90%.
As to `CN(C)S(=O)(=O)n1c(C#N)nc2c(C(F)(F)F)cc(Cl)cc21` [Compound 61], the “LC90, concentration which causes 90% mortality of the mites” value in test [1] was 2,000 mg/liter.
Take `CN(C)S(=O)(=O)n1c(C#N)nc2c(N)cccc21` [Compound 42]: in the test with Peronospora tabacina (setting [2]), the inhibition at 500 µg/mL lay within 20 to 90%.
On to `Cc1cc2nc(C#N)n(S(=O)(=O)N(C)C)c2cc1C` [Compound 8], for which the inhibition at 500 µg/mL in the test on Phytophthora infestans was in the range of 20 to 90%.
In the case of `CC(C)S(=O)(=O)n1c(C#N)nc2ccccc21` [Compound 22], the inhibition at 15 µg/mL in the test with Peronospora tabacina (setting [2]) fell in the range of 20 to 90%.
Consider `Cc1cc(Br)cc2c1nc(C#N)n2S(=O)(=O)N(C)C` [Compound 43], for which the inhibition at 500 µg/mL in the test with Phytophthora infestans fell in the range of 20 to 90%.
Consider `CC(C)S(=O)(=O)n1c(C#N)nc2c(Cl)cccc21` [Compound 21], for which, in the test on Peronospora tabacina (dose of 8 mg/liter, read-out: percentage inhibition of the development of the fungus), the inhibition at 8 µg/mL was in the range of 20 to 90%.
Regarding `CS(=O)(=O)n1c(C#N)nc2c(Cl)cc(Cl)cc21` [Compound 17], in the test on Phytophthora infestans, the inhibition at 15 µg/mL was in the range of 20 to 90%.

Source of the values: patent US4536502A (priority 1982, dated 1985).
